Type in all cases: cell-based
Data set [1] concerns erythrocytes in whole blood. Put plainly: Erythrocyte sedimentation in whole blood: sucralose concentration and other saccharides, visual analysis (Example 2). The settings on record: K2EDTA blood, 1 hour and 6 hours. The protocol: Fresh blood was collected into BD K2EDTA VACUTAINER® tubes and pooled. 952 μL of fresh blood was aliquot into 2 mL centrifuge tubes, each containing 48 μL of sucralose at the indicated concentration in FIG. 2, or the indicated saccharide (ML848, a di-chlorinated monosaccharide, or DG783, a mono-fluorinated monosaccharide) at the indicated concentration. Sucralose solutions of different concentrations were prepared by dilution of 0.5 M sucralose to 10 mM in water. […] 48 μL of PBS and 0.9% saline served as controls. Final concentrations of sucralose or the indicated saccharide shown in FIG. 2 were as follows (from left to right): 24 mM sucralose, 12 mM sucralose, 6.24 mM sucralose, 2.88 mM sucralose, 1.44 mM sucralose, 0.96 mM sucralose, 0.48 mM sucralose, 24 mM sucrose, 2.4 mM sucrose, 24 mM trehalose, 24 mM melezitose, 4.8 mM ML848, and 24 mM DG783.
(§1) The filled centrifuge tubes were gently inverted five times to mix and stored upright on the benchtop at approximately 25° C. Tubes were photographed at 1 hour (FIG. 2, upper panel) and 6 hours (FIG. 2, center panel) against a white background for visual analysis of sedimentation rate. After 7 hours of storage, tubes were centrifuged for 20 min at 3000 rpm to determine the effect of hemolysis on sedimentation rate by visual analysis (FIG. 2, lower panel).

Data set [2] has as its system erythrocytes in whole blood. Put plainly: Erythrocyte sedimentation in whole blood after addition of sucralose solution, visual analysis (Example 1). Conditions: about 24 mM sucralose (0.5 M solution, blood:solution 20:1), K2EDTA blood, ambient temperature, 6 hours and 24 hours. The protocol: Fresh blood was collected into BD K2EDTA VACUTAINER® tubes and pooled. Blood and a solution of 0.5 M sucralose were mixed at a ratio of 20:1 by aliquotting 952 μL of fresh blood into 2 mL centrifuge tubes containing 48 μL of formulation, resulting in a concentration of about 24 mM sucralose. 48 μL of PBS and 0.9% saline served as controls. Blood with no formulation (NF) added served as an additional control. The filled centrifuge tubes were gently inverted five times to mix and stored upright on the benchtop at approximately 25° C. Tubes were photographed at 0 hours (FIG. 1A), 6 hours (FIG. 1B), and 24 hours (FIG. 1C) against a white background for visual analysis of sedimentation rate.

Data set [3] relates to erythrocytes in whole blood. Put plainly: Hemolysis by centrifugation after 7 hours of storage, visual analysis (Example 2). The protocol: as §1
For data set [4], the system named is erythrocytes in whole blood. Put plainly: Erythrocyte sedimentation in whole blood after addition of sucralose powder, visual analysis (Example 3). As to the method:
Fresh blood was collected into BD K2EDTA VACUTAINER® tubes and pooled. 1 mL of fresh blood was aliquotted into 2 mL centrifuge tubes containing sucralose powder. Final concentrations of sucralose ranged from 7.5 mM to 100 mM, corresponding to 3.0 mg to 39.8 mg per mL of blood. The no formulation (NF) control sample received no addition of sucralose. Tubes were inverted at least five times until no visible undissolved material remained at the bottom of the tubes. Tubes were stored upright on the benchtop at approximately 25° C. Tubes were photographed at 1 hour (FIG. 3, upper panel) and 6 hours (FIG. 3, lower panel) against a white background for visual analysis of sedimentation rate.

The test system of data set [5] is erythrocytes in whole blood. Put plainly: Erythrocyte sedimentation in whole blood collected with different anticoagulants, visual analysis (Example 4). Conditions: final 24 mM sucralose; ACD-B, K3EDTA, NaHep, LiHep, NaF, SPS, K2EDTA tubes; 2 hours and 8 hours. An excerpt:
To screen for collection conditions, fresh blood was collected into a series of BD VACUTAINER® or Greiner Bio-One VACUETTE® low-volume blood collection tubes containing different anticoagulants, including acid citrate dextrose solution B (ACD-B), tri-potassium ethylenediaminetetraacetic acid (K3EDTA), sodium heparin (NaHep), lithium heparin (LiHep), sodium fluoride (NaF), and sodium polyanethol sulfonate (SPS). Collection into tubes containing di-potassium ethylenediaminetetraacetic acid (K2EDTA) served as a control. 952 μL of fresh blood was aliquot into 2 mL centrifuge tubes containing 48 μL of 0.5 M sucralose or PBS. No formulation (NF) added served as an additional control. The filled centrifuge tubes were gently inverted five times to mix and stored upright on the benchtop at approximately 25° C. Tubes were photographed at 2 hours (FIG. 4, upper panel) and 8 hours (FIG. 4, lower panel) against a white background for visual analysis of sedimentation rate. […] By contrast, addition of PBS had no effect on erythrocyte sedimentation rate.

The test system of data set [6] is erythrocytes in whole blood. Put plainly: Erythrocyte sedimentation in whole blood: sucralose compared to polyols and halogenated polyols, visual analysis (Example 5). The settings on record: 0.5 M solution, final 24 mM sucralose, K2EDTA blood, 2 hours. As to the method: Fresh blood was collected into BD K2EDTA VACUTAINER® tubes and pooled. 952 μL of fresh blood was aliquot into 2 mL centrifuge tubes containing 48 μL of a solution of 0.5 M sucralose, the indicated polyol, or the indicated halogenated polyol. Additives at 0.25 M were adjusted to 300 mOsmol with NaCl. PBS and no formulation (NF) added served as controls. The filled centrifuge tubes were gently inverted five times to mix and stored upright on the benchtop at approximately 25° C. Tubes were photographed at 2 hours against a white background for visual analysis of sedimentation rate.

The mark [7] stands for this setting: other saccharides, final: 24 mM and 2.4 mM sucrose, 24 mM trehalose, 24 mM melezitose, 4.8 mM ML848, 24 mM DG783.

A value given as a limit tells only on which side of the number the result lay.

In the case of `OC[C@H]1O[C@@](CO)(O[C@H]2O[C@H](CO)[C@@H](O)[C@H](O)[C@H]2O)[C@@H](O[C@H]2O[C@H](CO)[C@@H](O)[C@H](O)[C@H]2O)[C@@H]1O` [melezitose], in data set [1] (setting [7]), the “lower sedimentation rate of erythrocytes” value is recorded as “not observed”.
With `OC[C@H]1O[C@@](CO)(O[C@H]2O[C@H](CO)[C@@H](O)[C@H](O)[C@H]2O)[C@@H](O)[C@@H]1O` [sucrose], the “lower sedimentation rate of erythrocytes” value in data set [1] (setting [7]) is “not observed”.
Still for that read-out and setting: in the case of `OC[C@H]1O[C@H](O[C@H]2O[C@H](CO)[C@@H](O)[C@H](O)[C@H]2O)[C@H](O)[C@@H](O)[C@@H]1O` [trehalose] it was “not observed”.
For the compound `OC[C@H]1O[C@H](O[C@]2(CCl)O[C@H](CCl)[C@@H](O)[C@@H]2O)[C@H](O)[C@@H](O)[C@H]1Cl` [sucralose, 1,6-dichloro-1,6-dideoxy-β-D-fructofuranosyl-4-chloro-4-deoxy-α-D-galactopyranoside], in data set [2], the “sedimentation rate of the erythrocytes compared to NF, PBS or saline” value was “lower sedimentation rate”. Besides, the “lower sedimentation rate of erythrocytes” value in data set [1] (final sucralose concentrations below 5 mM) is “not observed”. Moreover, the “sedimentation rate of erythrocytes” value in data set [1] (high concentrations of sucralose, ambient temperature) is reported as “lower sedimentation rate”. In addition, the “hemolysis of erythrocytes (coloration of plasma layer after centrifugation)” value in data set [3] (high concentration of sucralose, 7 hours of storage, centrifuged 20 min at 3000 rpm) was “not due to excessive hemolysis”. Besides, the “final sucralose concentrations at which significant hemolysis was not seen” value in data set [3] (whole blood) is given as not above 40 mM. Also, the “state of whole blood samples at lower concentrations of sucralose” value in data set [4] (sucralose powder below 24 mM, ambient temperatures, 6 hours) was “separation of the erythrocyte and plasma layers”. Moreover, the “sucralose concentration at which homogeneity of whole blood samples was observed” value in data set [4] (sucralose powder, ambient temperatures, 6 hours) was not below 24 mM. Further, in data set [4] (sucralose powder, final 7.5 mM to 100 mM, K2EDTA blood, 1 hour and 6 hours), the “rate of erythrocyte sedimentation versus sucralose concentration” value is “inversely proportional to the concentration of sucralose”. For the same compound, in data set [5], the “erythrocyte sedimentation rate for each anticoagulant” value was “reduction of erythrocyte sedimentation rate”. For the same compound, in data set [6], the erythrocyte sedimentation rate entry is reported as “reduced erythrocyte sedimentation rate”.

The values above are taken from US10568317B2 (Biomatrica, Inc., priority 2015, dated 2020).
